EC50 data for 41 compounds are collected here from US9474755B2, “GLP-1 receptor modulators” (Receptos, Inc., priority 2014, dated 2016).

In general, EC50 refers to the concentration that produces a half-maximal response.

In the assay the target is T1, GLP-1R (Homo sapiens, UniProt P43220).
T1 construct: host or cells: CRE-bla CHO-K1
T1 sequence (P43220 24-463): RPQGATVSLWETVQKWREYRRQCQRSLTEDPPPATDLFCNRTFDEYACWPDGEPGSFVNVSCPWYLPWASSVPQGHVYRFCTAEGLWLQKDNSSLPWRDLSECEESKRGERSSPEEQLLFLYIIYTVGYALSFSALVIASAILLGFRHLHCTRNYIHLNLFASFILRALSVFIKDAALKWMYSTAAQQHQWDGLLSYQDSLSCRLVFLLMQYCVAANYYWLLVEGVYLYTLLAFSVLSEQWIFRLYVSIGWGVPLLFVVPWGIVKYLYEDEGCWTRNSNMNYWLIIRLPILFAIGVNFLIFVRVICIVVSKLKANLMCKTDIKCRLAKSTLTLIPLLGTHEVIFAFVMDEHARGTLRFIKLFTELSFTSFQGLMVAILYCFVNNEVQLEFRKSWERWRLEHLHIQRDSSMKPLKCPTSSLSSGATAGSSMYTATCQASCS
T1 sequence (P01275 100-127 partner limits assumed): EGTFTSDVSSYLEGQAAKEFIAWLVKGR
Description: EC20 GLP-1(9-36) PAM cAMP Assay: dose response of compound in the presence of fixed concentration of GLP-1(9-36). The assay is classed as cell-based. The settings on record: GLP-1R CRE-bla CHO-K1 cells, in presence of fixed concentration of GLP-1(9-36), 30 min at 37° C. As for the experimental part: EC20 GLP-1(9-36) PAM cAMP Assay: Dose Response of Compound in the Presence of Fixed Concentration of GLP-1 (9-36).
GLP-1R CRE-bla CHO-K1 cells cultured in growth medium (DMEM-High glucose, 10% dialyzed FBS, 0.1 mM NEAA, 25 mM Hepes, 100 U/mL penicillin/100 μg/mL streptomycin, 5 μg/mL Blasticidin, 600 μg/mL Hygromycin) were trypsinized and plated in suspension into 384 well white flat bottom plates at 5000 cells/well in 12 μL assay buffer (Hanks Balanced Salt solution, 10 mM Hepes, 0.1% BSA, 10 pH 7.4). A 5× compound dose response curve (12-point) was generated in assay buffer containing 1.5 mM IBMX, 4% DMSO. GLP-1(9-36) was diluted to 4.2 μM in assay buffer containing 1.5 mM IBMX and 4% DMSO. The 5× compound dose response was added (3 μL), followed by 0.5 μL of GLP-1(9-36) and cells were incubated for 30 min at 37° C. Direct detection of cAMP was carried out using DiscoveRx HitHunter cAMP kit according to manufacturer's instructions and luminescence was read using a SpectraMax M5 plate reader. Luminescence was converted to total cAMP using a cAMP standard curve and data was analyzed by non-linear regression to determine the EC50 and Emax.
Consider `CCCC1CCC(C2CC=C(c3cnc(-c4ccc(C[C@@H](NC(=O)c5ccc(C(C)(C)C)s5)C(=O)N5CC(C(=O)O)C5)cc4)nc3)CC2)CC1` (stereo partly drawn) [Compound 81, 1-((2R)-2-(5-(tert-butyl)thiophene-2-carboxamido)-3-(4-(5-(4′-propyl-[1,1′-bi(cyclohexan)]-3-en-4-yl)pyrimidin-2-yl)phenyl)propanoyl) azetidine-3-carboxylic acid], for which the EC50 lay within 500 to 2500 nM.

Turning to `CCCC1CCC(C2CCC(c3cnc(-c4ccc(C[C@H](NC(=O)c5ccc(C6(C)CC6)cc5)C(=O)N5CC(C(=O)O)C5)cc4)nc3)CC2)CC1` (some centres unmarked) [Compound 25], the EC50 fell in the range of 2500 to 5000 nM. To `CCCC1CCC(C2CCC(c3cnc(-c4ccc(C[C@H](NC(=O)c5ccc(C(C)(C)C)s5)C(=O)N[C@H](C)C(=O)O)cc4)nc3)CC2)CC1` (some centres unmarked) [Compound 67] belongs below 500 nM; to `CCCc1ccc(C2CC=C(c3cnc(-c4ccc(C[C@H](NC(=O)c5ccc(C(C)(C)C)s5)C(=O)O)cc4)nc3)CC2)cc1` (some centres unmarked) [Compound 121], below 500 nM. Then `CCCCCC1CC=C(c2cnc(-c3ccc(C[C@H](NC(=O)c4ccc(C(C)(C)C)s4)C(=O)N4CC(C(=O)O)C4)cc3)nc2)CC1` (some centres unmarked) [Compound 38], with 500 to 2500 nM; and `CCCC1CCC(C2CC=C(c3cnc(-c4ccc(C[C@H](NC(=O)c5ccc(C(C)(C)C)s5)C(=O)N[C@H](C(=O)O)C(C)C)cc4)nc3)CC2)CC1` (some centres unmarked) [Compound 75], with 500 to 2500 nM; and `CC(=O)C1CC=C(c2cnc(-c3ccc(C[C@H](NC(=O)c4ccc(C(C)(C)C)s4)C(=O)N[C@H](C)C(=O)O)cc3)nc2)CC1` (some centres unmarked) [Compound 61], with below 500 nM. Take `CC[C@H]1CC[C@H](C2CC=C(c3cnc(-c4ccc(C[C@H](NC(=O)c5ccccc5)C(=O)N5CC(C(=O)O)C5)cc4)nc3)CC2)CC1` (some centres unmarked) [Compound 99]: the EC50 is 500 to 2500 nM. On to `CCCC1CCC(C2CC=C(c3cnc(-c4ccc(C[C@H](NC(=O)c5ccc(C(C)=O)cc5)C(=O)N5CC(C(=O)O)C5)cc4)nc3)CC2)CC1` (some centres unmarked) [Compound 30], for which the EC50 was 500 to 2500 nM. For the compound `CC(C)(C)c1ccc(C(=O)N[C@@H](Cc2ccc(-c3ncc(C4=CCC([C@H]5CC[C@H](C)CC5)CC4)cn3)cc2)C(=O)NCC2CCNC2)s1` (some centres unmarked) [Compound 114], the EC50 was 500 to 2500 nM. Then `CCCC1CCC(C2CC=C(c3cnc(-c4ccc(C[C@@H](NC(=O)c5ccc(C(C)(C)C)s5)C(=O)N5CC(C(=O)O)C5)cc4)nc3)CC2)CC1` (some centres unmarked) [Compound 124], with 500 to 2500 nM. Then `C[C@@H](NC(=O)[C@H](Cc1ccc(-c2ncc(C3=CCC4(CC3)OCCO4)cn2)cc1)NC(=O)c1ccc(C(C)(C)C)s1)C(=O)O` [Compound 66], with 2500 to 5000 nM; and `CCCC1CCC(C2CC=C(c3cnc(-c4ccc(C[C@H](NC(=O)c5ccc(C6CC6)cc5)C(=O)N5CC(C(=O)O)C5)cc4)nc3)CC2)CC1` (some centres unmarked) [Compound 24], with below 500 nM; and `CCCC1CCC(C2CC=C(c3cnc(-c4ccc(C[C@H](NC(=O)c5cc6cc(OC)ccc6[nH]5)C(=O)N5CC(C(=O)O)C5)cc4)nc3)CC2)CC1` (some centres unmarked) [Compound 33], with 500 to 2500 nM. Then `CCCC1CCC(C2CCC(c3cnc(-c4ccc(C[C@H](NC(=O)c5ccc(C(C)(C)C)nc5)C(=O)N5CC(C(=O)O)C5)cc4)nc3)CC2)CC1` (some centres unmarked) [Compound 28], with 5000 to 10000 nM. Regarding `CC(C)(C)c1ccc(C(=O)N[C@@H](Cc2ccc(-c3ncc(C4=CCC(c5ccccc5)CC4)cn3)cc2)C(=O)N2CC(C(=O)O)C2)s1` (some centres unmarked) [Compound 11], the EC50 was below 500 nM. Then `CCCC1CCC(C2CC=C(c3cnc(-c4ccc(CC(NC(=O)c5ccc(C(C)(C)C)s5)C(=O)N5CC(C(=O)O)C5)cc4)nc3)CC2)CC1C` (centres unmarked) [Compound 85], with below 500 nM; and `CC(C)(C)c1ccc(C(=O)N[C@@H](Cc2ccc(-c3ncc(C4=CCC(C(F)(F)F)CC4)cn3)cc2)C(=O)N2CC(C(=O)O)C2)s1` (some centres unmarked) [Compound 37], with 500 to 2500 nM.

Take `CC(C)(C)c1ccc(C(=O)N[C@@H](Cc2ccc(-c3ncc(C4CCC(C(C)(C)C)CC4)cn3)cc2)C(=O)N2CC(C(=O)O)C2)s1` (some centres unmarked) [Compound 41]: the EC50 fell in the range of 5000 to 10000 nM. To `CC(C)(C)c1ccc(C(=O)N[C@@H](Cc2ccc(-c3ncc(C4=CCC(C5CCCCC5)CC4)cn3)cc2)C(=O)O)s1` (some centres unmarked) [Compound 120] belongs 500 to 2500 nM; to `CC[C@H]1CC[C@H](C2CC=C(c3cnc(-c4ccc(C[C@H](NC(=O)c5ccc(C(F)(F)F)s5)C(=O)N5CC(C(=O)O)C5)cc4)nc3)CC2)CC1` (some centres unmarked) [Compound 98], below 500 nM.

In the case of `C[C@@H](NC(=O)[C@H](Cc1ccc(-c2ncc(C3=CCC(C)(C)CC3)cn2)cc1)NC(=O)c1ccc(C(C)(C)C)s1)C(=O)O` [Compound 57], the EC50 is 500 to 2500 nM. To `CCO[C@H]1CC[C@H](C2CC=C(c3cnc(-c4ccc(C[C@H](NC(=O)c5ccc(C(C)(C)C)s5)C(=O)N5CC(C(=O)O)C5)cc4)nc3)CC2)CC1` (some centres unmarked) [Compound 84] belongs below 500 nM. To `CCCC1CCC(C2CC=C(c3cnc(-c4ccc(C[C@H](NC(=O)c5ccc(C(C)(C)C)s5)C(=O)NCCC(=O)O)cc4)nc3)CC2)CC1` (some centres unmarked) [Compound 71] belongs below 500 nM; to `CCCC1CCC(C2CC=C(c3cnc(-c4ccc(C[C@H](NC(=O)c5ccc(C(C)(C)C)s5)C(=O)N[C@H](C)C(=O)O)cc4)nc3)CC2)CC1` (stereo partly drawn) [Compound 1, ((2S)-2-(5-(tert-butyl)thiophene-2-carboxamido)-3-(4-(5-(4′-propyl-[1,1′-bi(cyclohexan)]-3-en-4-yl)pyrimidin-2-yl)phenyl)propanoyl)-D-alanine], below 500 nM; to `CCCC1CCN(C2CC=C(c3cnc(-c4ccc(C[C@H](NC(=O)c5ccc(C(C)(C)C)s5)C(=O)N5CC(C(=O)O)C5)cc4)nc3)CC2)CC1` (some centres unmarked) [Compound 46], 2500 to 5000 nM. To `CC[C@H]1CC[C@H](C2CC=C(c3cnc(-c4ccc(C[C@H](NC(=O)c5ccc(OC(C)(C)C)cc5)C(=O)N5CC(C(=O)O)C5)cc4)nc3)CC2)CC1` (some centres unmarked) [Compound 95] belongs 500 to 2500 nM; to `CCc1ccc(C(=O)N[C@@H](Cc2ccc(-c3ncc(C4=CCC([C@H]5CC[C@H](CC)CC5)CC4)cn3)cc2)C(=O)N2CC(C(=O)O)C2)s1` (some centres unmarked) [Compound 93], below 500 nM; to `CC[C@H]1CC[C@H](C2CC=C(c3cnc(-c4ccc(C[C@H](NC(=O)c5ccc(C(C)(C)C)s5)C(=O)N5CC(C(=O)O)C5)cc4)nc3)CC2)CC1` (mixture of isomers) [Compound 76, 1-((S)-2-(5-(tert-butyl)thiophene-2-carboxamido)-3-(4-(5-((1RS,1′r,4′RS)-4′-ethyl-[1,1′-bi(cyclohexan)]-3-en-4-yl)pyrimidin-2-yl)phenyl)propanoyl)azetidine-3-carboxylic acid], below 500 nM. Take `CC[C@H]1CC[C@H](C2CC=C(c3cnc(-c4ccc(C[C@H](NC(=O)c5ccc(C(C)(C)C)s5)C(=O)N[C@H](C)C(=O)O)cc4)nc3)CC2)CC1` (some centres unmarked) [Compound 106]: the EC50 was below 500 nM. To `CCCCCC1CCC(C2CC=C(c3cnc(-c4ccc(C[C@H](NC(=O)c5ccc(C(C)(C)C)s5)C(=O)N[C@H](C)C(=O)O)cc4)nc3)CC2)CC1` (some centres unmarked) [Compound 2] belongs 5000 to 10000 nM. To `CCCc1ccc(C2CC=C(c3cnc(-c4ccc(C[C@H](NC(=O)c5ccc(C(C)(C)C)s5)C(=O)N5CC(C(=O)O)C5)cc4)nc3)CC2)cc1` (some centres unmarked) [Compound 47] belongs below 500 nM; to `CCCC1CCC(C2CC=C(c3cnc(-c4ccc(C[C@H](NC(=O)c5ccc(CC(C)C)cc5)C(=O)N5CC(C(=O)O)C5)cc4)nc3)CC2)CC1` (some centres unmarked) [Compound 23], below 500 nM. Then `CC1(C)CCC(C2CC=C(c3cnc(-c4ccc(C[C@H](NC(=O)c5ccc(C(C)(C)C)s5)C(=O)O)cc4)nc3)CC2)CC1` (some centres unmarked) [Compound 122], with 500 to 2500 nM; and `CCCC1CCC(C2CC=C(c3cnc(-c4ccc(C[C@H](NC(=O)c5ccc(C(C)(C)C)s5)C(=O)O)cc4)nc3)CC2)CC1` (some centres unmarked) [Compound 9], with 500 to 2500 nM.

With `CC(C)(C)c1ccc(C(=O)N[C@@H](Cc2ccc(-c3ncc(C4=CCC([C@H]5CC[C@H](C)CC5)CC4)cn3)cc2)C(=O)O)s1` (mixture of isomers) [Compound 123, (S)-2-(5-(tert-butyl)thiophene-2-carboxamido)-3-(4-(5-((1RS,1′r,4′RS)-4′-methyl-[1,1′-bi(cyclohexan)]-3-en-4-yl)pyrimidin-2-yl)phenyl)propanoic acid], the EC50 is below 500 nM. Then `CCC[C@H]1CC[C@H](C2CC=C(c3cnc(-c4ccc(C[C@H](NC(=O)c5ccc(CC(C)C)s5)C(=O)N5CC(C(=O)O)C5)cc4)nc3)CC2)CC1` (some centres unmarked) [Compound 118], with below 500 nM; and `CCCC1CCC(C2CC=C(c3cnc(-c4ccc(C[C@H](NC(=O)c5ccc(C(C)(C)C)nc5)C(=O)N5CC(C(=O)O)C5)cc4)nc3)CC2)CC1` (some centres unmarked) [Compound 29], with 500 to 2500 nM; and `CC[C@H]1CC[C@H](C2CC=C(c3cnc(-c4ccc(C[C@H](NC(=O)c5ccc(C(C)(C)C)s5)C(=O)O)cc4)nc3)CC2)CC1` (some centres unmarked) [Compound 119], with 500 to 2500 nM.

Consider `CCC[C@H]1CC[C@H](C2CC=C(c3cnc(-c4ccc(C[C@H](NC(=O)c5ccc(C(C)(C)C)s5)C(=O)N5CC(C(=O)O)C5)cc4)nc3)C(C)C2)CC1` (some centres unmarked) [Compound 87], for which the EC50 is below 500 nM. Then `CCC1CCC(C2CC=C(c3cnc(-c4ccc(C[C@H](NC(=O)c5ccc(C(C)(C)C)s5)C(=O)N[C@H](C)C(=O)O)cc4)nc3)CC2)CC1` (some centres unmarked) [Compound 70], with below 500 nM.
